The record followed here is PMC6222718, “Ethylenediamine Derived Carboxamides of Betulinic and Ursolic Acid as Potential Cytotoxic Agents” (Molecules : A Journal of Synthetic Chemistry and Natural …, 2018).

The subject of data set [1] is 518A2 (melanoma). Kind of data set: SRB cytotoxicity assay, 518A2. The format is cell-based, human. Conditions: for EC50: Homo sapiens, SRB assay, 96 h of treatment, 518A2; for Selectivity index (SI) 518A2: SI = EC50 (NIH 3T3)/EC50 (518A2). An outline of the steps: (§1)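 Absorbance at 570 nm of SRB-stained, TCA-fixed monolayers gave the read-out after 96 h treatment with 1–30 µM compound. EC50s were derived from semilogarithmic dose–response curves with top and bottom fixed at 100 and 0.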
On the technique in general: In SRB staining, fixed cells bind dye roughly in proportion to their protein.

The test system of data set [2] is non-malignant mouse fibroblasts NIH 3T3. Description: SRB cytotoxicity assay, NIH 3T3. Type of data set: cell-based. Conditions: NIH3T3, 96 h of treatment. An outline of the steps:
as §1

The subject of data set [3] is 8505C (thyroid carcinoma). Kind of data set: SRB cytotoxicity assay, 8505C. Type of data set: cell-based, human. Conditions: for EC50: Homo sapiens, SRB assay, 96 h of treatment, 8505C; for Selectivity index (SI) 8505C: SI = EC50 (NIH 3T3)/EC50 (8505C). An outline of the steps:
as §1

Data set [4] relates to HT29 (colon adenocarcinoma). Kind of data set: SRB cytotoxicity assay, HT29. The format is cell-based, human. Conditions: for EC50: Homo sapiens, HT-29, SRB assay, 96 h of treatment, HT29; for Selectivity index (SI) HT29: SI = EC50 (NIH 3T3)/EC50 (HT29). The gist of the method:
as §1

Data set [5] deals with A2780 (ovarian carcinoma). Description: SRB cytotoxicity assay, A2780. Type of data set: cell-based, human. Conditions: for EC50: Homo sapiens, SRB assay, 96 h of treatment, A2780; for Selectivity index (SI) A2780: SI = EC50 (NIH 3T3)/EC50 (A2780). The gist of the method: as §1
Data set [6] concerns MCF-7 (breast adenocarcinoma). Description: SRB cytotoxicity assay, MCF-7. The format is cell-based, human. Conditions: for EC50: Homo sapiens, MCF7, SRB assay, 96 h of treatment, MCF-7; for Selectivity index (SI) MCF-7: SI = EC50 (NIH 3T3)/EC50 (MCF-7). An outline of the steps: as §1

The melting point is the temperature of the solid-liquid transition. For orientation: EC50 means the concentration at which the effect is half-maximal. High values mean a less potent agent, low ones a more potent agent. On to `CC(=O)O[C@H]1CC[C@@]2(C)C(CC[C@]3(C)C2CC=C2C4[C@@H](C)[C@H](C)CC[C@]4(C(=O)NCCCCN)CC[C@]23C)C1(C)C` (stereo partly drawn) [Compound 8, (3β)-N-(4-Aminobutyl)-3-acetyloxy-urs-12-en-28-amide], for which the melting point fell in the range of 117 to 120 °C. Besides, in data set [1], a half-maximal response (EC50) required 2700 ± 100 nM and the “Selectivity index (SI) 518A2” value is on record as 0.48. The EC50 in data set [2] turned out to be 1300 ± 200 nM. Further, in data set [3], the EC50 came out at 3200 ± 10 nM and the “Selectivity index (SI) 8505C” value came out at 0.41. In addition, in data set [4], the EC50 worked out at 1700 ± 100 nM and the “Selectivity index (SI) HT29” value is given as 0.76. In data set [5], the EC50 was 2600 ± 100 nM and the “Selectivity index (SI) A2780” value is listed as 0.50. Besides, in data set [6], the EC50 came to 1700 ± 100 nM and the “Selectivity index (SI) MCF-7” value is reported as 0.76.

`C=C(C)C1CC[C@]2(C(=O)NCCN3CCCCC3)CC[C@]3(C)C(CCC4[C@@]5(C)CC[C@H](OC(C)=O)C(C)(C)C5CC[C@]43C)C12` (stereo partly drawn) [Compound 20, (3β)-N-(2-Piperidin-1-ylethyl)-3-acetyloxy-lup-20(29)-en-28-amide] registered a melting point of 124 to 127 °C. Also, in data set [1], the EC50 came to 3100 ± 300 nM and the “Selectivity index (SI) 518A2” value was found to be 0.39. Moreover, the midpoint of the response in data set [2], the EC50, lay at 1200 ± 200 nM. For the same molecule, in data set [3], the 50% effective concentration (EC50) is 3000 ± 360 nM and the “Selectivity index (SI) 8505C” value was determined as 0.40. In addition, in data set [4], the EC50 turned out to be 800 ± 100 nM and the “Selectivity index (SI) HT29” value worked out at 1.50. Also, in data set [5], the EC50 worked out at 1600 ± 200 nM and the “Selectivity index (SI) A2780” value was determined as 0.75. Also, in data set [6], the response was half-maximal at 1500 ± 500 nM (EC50) and the “Selectivity index (SI) MCF-7” value is 0.80.

For the molecule `C=C(C)C1CC[C@]2(C(=O)NCCOCCN)CC[C@]3(C)C(CCC4[C@@]5(C)CC[C@H](O)C(C)(C)C5CC[C@]43C)C12` (stereo partly drawn) [Compound 30, (3β)-N-[2-(2-Aminoethoxy)ethyl]-3-hydroxy-lup-20(29)-en-28-amide], the melting point is 182 to 183 °C. Further, in data set [1], the EC50 was 500 ± 40 nM and the “Selectivity index (SI) 518A2” value is reported as 0.80. The midpoint of the response in data set [2], the EC50, lay at 400 ± 70 nM. Moreover, in data set [3], the EC50 was determined as 200 ± 10 nM and the “Selectivity index (SI) 8505C” value is given as 2.00. Besides, in data set [4], the EC50 came to 500 ± 70 nM and the “Selectivity index (SI) HT29” value was found to be 0.80. In addition, in data set [5], the 50% effective concentration (EC50) was 500 ± 40 nM and the “Selectivity index (SI) A2780” value came to 0.80. For the same molecule, in data set [6], it took 400 ± 200 nM to reach a half-maximal effect (EC50) and the “Selectivity index (SI) MCF-7” value was found to be 1.00.

`CC(=O)O[C@H]1CC[C@@]2(C)C(CC[C@]3(C)C2CC=C2C4[C@@H](C)[C@H](C)CC[C@]4(C(=O)NCCN4CCCC4)CC[C@]23C)C1(C)C` (stereo partly drawn) [Compound 5, (3β)-N-(2-Pyrrolidin-1-ylethyl)-3-acetyloxy-urs-12-en-28-amide] gave a melting point of 156 to 159 °C. Also, in data set [1], the EC50 worked out at 4500 ± 200 nM and the “Selectivity index (SI) 518A2” value was determined as 0.73. This molecule also displayed an EC50 in data set [2] of 3300 ± 300 nM. Also, in data set [3], the EC50 stood at 4300 ± 200 nM and the “Selectivity index (SI) 8505C” value turned out to be 0.77. Moreover, in data set [4], the EC50 was 2100 ± 200 nM and the “Selectivity index (SI) HT29” value stood at 1.57. In data set [5], the EC50 was 3100 ± 200 nM and the “Selectivity index (SI) A2780” value was found to be 1.06. Besides, in data set [6], the EC50 turned out to be 2900 ± 700 nM and the “Selectivity index (SI) MCF-7” value worked out at 1.14.
